Common to all, as to format: in vivo
Test [1] has as its system rat middle cerebral artery distal obstruction cerebral ischemia model. Kind of test: dMCAO cerebral ischemia: neurologic function score. As for the experimental part: Using rat middle cerebral artery distal obstruction cerebral ischemia model. (1) according to rat weight, 10% chloral hydrate (3 ml/kg) was peritoneally injected to anaesthetize. […]
3.3.1 the neurologic function score of the animal in conscious were scored for the rat behaviour according to the Neurological Defects 4 Score in 5 Grade Method by Longa E Z et al ^[4] : 0 point: no significant neurologic function impairment; 1 point: unable to stretch forelimbs on opposite sides; 2 point: rolling to the opposite side when walking; 3 point: duping to the opposite side when walking; 4 point: unable to spontaneously walk, and loss of consciousness.

For test [2], the system named is TNF-α mRNA in mouse renal cortex. Briefly: kidney ischemia reperfusion: real time quantitative PCR of TNF-α. The settings on record: vs IR group; HEA 5, 7.5, 10 mg/kg; DPCPX 1 mg/kg; DPCPX 1 mg/kg+HEA. As for the experimental part: Male C57BL/6 mice 20-25 g, after one week of adaptive feeding to the animals, were randomly divided into eight groups: sham-operation group, IR group, HEA 5 mg/kg group, HEA 7 mg/kg group, HEA 10 mg/kg group, DPCPX (1 mg/kg) group, DPCPX (1 mg/kg)+HEA (5 mg/kg) group and DPCPX (1 mg/kg)+HEA (7.5 mg/kg) group. […]
The MPO analysis was conducted according to the specification in the kit. 9.2.6 Real time quantitative PCR analysis of gene expression of ICAM-1, TNF-α and IL-1β; the sequence of primer used in RT-PCR reaction system is as follow:
PCR amplification reaction system: IQ SYBR Green Super mix 12.5 μL, Forward primer (10 μmo/L) 1 μL, Reverse primer (10 μmol/L) 1 μL, cDNA (water was added to dilute to same level) 10.5 μL. […] The statistics and calculation of experiment results was automatically conducted fluorescence quantitative PCR analyzing software BIO-RAD CFX Manager. Target gene mRNA expression level was calculated by 2-ΔΔCt method, and standardized using the GAPDH mRNA in corresponding specimen a standard.

In test [3] the test system is mouse sleep induced by pentobarbital sodium. Kind of test: sleep induced by threshold dose of pentobarbital sodium. As for the experimental part: Male ICR mice were randomly divided into four groups, respectively control group, positivediazepam (1 mg/kg) group, HEA (25 mg/kg) group and DPCPX+HEA (2 mg/kg+25 mg/kg) group. […]
Regarding the mouse righting reflex disappear for 1 min within 15 min as the hypnagogic criterion, sleep latency and sleep duration were recorded for the mice in each group.

The test system of test [4] is rat middle cerebral artery distal obstruction cerebral ischemia model. Kind of test: dMCAO cerebral ischemia: brain histomorphological staining HE. As for the experimental part: Using rat middle cerebral artery distal obstruction cerebral ischemia model. (1) according to rat weight, 10% chloral hydrate (3 ml/kg) was peritoneally injected to anaesthetize. (2) the rat lie on right side and fixed, 1 cm skin incision was cut at connection of inner canthus with external canal, fascia was isolated, muscle tissue, the skull was exposed; (3) a small amount of normal saline was sucked with cotton ball to wipe the skull to ac clear view; (4) fascia was isolated under operating microscope, and the skull was exposed, a hole with diameter of 2 mm circular was drilled at a sute 1/3 of spine; (5) the excess bone debris was washed by a small amount of normal saline, the meninge was push aside, and the middle cerebral artery MCA was exposed; (6) the rat lie in supine position and fixed, an incision was made along middle of throat, and arteria carotis communis CCA on both sides were isolate, pass through with a surgical suture, not ligated temporarily; (7) the MCA was found under operating microscope, burned by a monopolar coagulator, then wash and colled with normal saline; (8) immediately after coagulation, the arteria carotis communis on both sides was ligated, and blocked for 60 min; (9) the wound on head was stitched, after 1 hour the arteria carotis communis on both sides was […], and the skin was stitched, thus the modeling was complete. […]

The values that follow come from patent publication US10479814B2, “Adenosine receptor activation reagent and the uses of thereof” (Zhejiang Subtropical Crops Research Institute, priority 2014, dated 2019).

“Also recorded” adds a separate entry of the source.

As for `OCCNc1ncnc2c1ncn2[C@@H]1O[C@H](CO)[C@@H](O)[C@H]1O` [HEA, N(6)-(2-hydroxyethyl)-adenosine], the neurologic function score entry in test [1] (dMCAO rat, HEA 5, 7.5, 12 mg/kg ip (7.5 mg/kg) 30 min before operation, vs model group) is given as “significantly improve neurological symptom of dMCAO rat; also recorded: significantly improve neurological function of the injured brain”. For the same compound, the “TNF-α mRNA expression in renal cortex” value in test [2] is recorded as “significantly reduce the high expression”. The “sleep time induced by threshold dose of pentobarbital sodium” value in test [3] (HEA 25 mg/kg, sc, pentobarbital sodium 50 mg/kg) is given as “extended sleep time of the mice induced by threshold dose of pentobarbital sodium to a certain degree; also recorded: extends mouse sleep time induced by threshold dose of pentobarbital sodium to a certain degree”. Moreover, the sleep latency result in test [3] (HEA 25 mg/kg, sc, pentobarbital sodium 50 mg/kg, vs control group) is on record as “no statistical difference in sleep latency; also recorded: no significant effect on sleep latency”. For the same compound, the “brain histomorphology (HE staining)” value in test [4] (dMCAO rat, HEA 7.5 mg/kg ip, vs model group) was “reduce the cerebral cortex tissue structure loosening caused by ischemia; also recorded: improve cell swelling degree and nuclear aberration, and increases cell number”.

With `CCCn1c(=O)c2[nH]c(C3CCCC3)nc2n(CCC)c1=O` [DPCPX, reference compound], the “antagonism of the protective effects of HEA in dMCAO” value in test [1] (HEA 7.5 mg/kg + DPCPX 1 mg/kg ip, all dMCAO readouts) is reported as “may be antagonized”. Moreover, the “TNF-α mRNA expression in renal cortex” value in test [2] is on record as “significantly increase”. In addition, the “effect of adenosine receptor antagonist on hypnosis effect of the HEA” value in test [3] (DPCPX+HEA 2 mg/kg+25 mg/kg) is “hypnosis effect of the HEA is significantly inhibited”. Further, the “effect of DPCPX on brain protective effect of HEA (HE staining)” value in test [4] (DPCPX 1 mg/kg ip + HEA 7.5 mg/kg ip) is reported as “blocking the brain protective effect of the HAE”.
